# In patent publication US6984649B1, “Pyridine derivatives” (Bayer Aktiengesellschaft, priority 2000, dated 2006):
# Counter-ions that a name gives are not always drawn.
# Target: T1, human IKK-β (Homo sapiens, UniProt O14920)
# T1 construct: A cDNA fragment encoding human IKK-β open reading frame was generated by PCR; His tag (from pcDNA3.1/His C); made in house; host or cells: Sf21 insect cells (baculovirus); substrate made in E. coli
# T1 sequence (O14920 1-756): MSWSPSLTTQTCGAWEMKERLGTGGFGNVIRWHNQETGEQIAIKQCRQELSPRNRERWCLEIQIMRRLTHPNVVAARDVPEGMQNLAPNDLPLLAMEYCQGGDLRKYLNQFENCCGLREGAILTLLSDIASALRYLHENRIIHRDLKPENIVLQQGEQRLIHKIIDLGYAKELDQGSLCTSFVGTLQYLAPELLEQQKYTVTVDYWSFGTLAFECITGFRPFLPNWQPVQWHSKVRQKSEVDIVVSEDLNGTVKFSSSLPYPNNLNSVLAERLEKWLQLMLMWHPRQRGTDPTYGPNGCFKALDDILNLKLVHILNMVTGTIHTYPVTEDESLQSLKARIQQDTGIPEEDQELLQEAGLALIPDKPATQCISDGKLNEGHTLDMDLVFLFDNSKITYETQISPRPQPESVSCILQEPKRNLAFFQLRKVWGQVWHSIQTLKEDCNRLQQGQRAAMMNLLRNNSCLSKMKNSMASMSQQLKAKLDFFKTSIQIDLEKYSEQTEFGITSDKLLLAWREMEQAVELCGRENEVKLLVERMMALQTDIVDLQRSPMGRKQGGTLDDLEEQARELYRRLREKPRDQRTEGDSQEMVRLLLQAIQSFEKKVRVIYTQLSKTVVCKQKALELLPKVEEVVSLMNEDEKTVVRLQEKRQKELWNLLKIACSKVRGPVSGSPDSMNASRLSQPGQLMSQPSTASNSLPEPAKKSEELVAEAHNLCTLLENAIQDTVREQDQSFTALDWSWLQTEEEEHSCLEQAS
# Test: IKK-β kinase inhibitory assay
# Assay type: biochemical
# Conditions: compounds as yielded by solid phase synthesis, purity about 40 to 90%, read-out: In vitro activity grade (In vitro IC50)
# Text: [IKK-β Kinase Inhibitory Assay]
# (1) Preparation of IKK-β Kinase Protein.
# • A cDNA fragment encoding human IKK-β open reading frame was generated by PCR with the use of a pair of primers designed from the published sequence (Woronicz J D et al. (1997) Science 278, 866-869). A template was obtained from Quickclone cDNA (Clontech) using Elongase™ Amplification kit (Life Technologies). The DNA fragments generated by PCR were gel-purified and subcloned into pBluescript. The cDNA fragment cloned in pBluescript was inserted into pcDNA3.1/His C KpnI/NotI, and transferred into pVL1393 SmaI/XbaI (Pharmingen) to construct a baculovirus transfer vector. Then the vector, together with the linearized baculovirus (BaculoGold™, Pharmingen) was used to transfect Sf21 cells (Invitrogen, San Diego, Calif.). Generated recombinant baculovirus was cloned and amplified in Sf21 cells, grown in TNM-FH insect cell medium (Life Technologies, Inc.) supplemented with 10% FCS, […] Gentamycin, 0.1% Pluronic F-68 (Life Technologies, Inc.) as suspension culture (200 ml in 1 L Erlenmeyer flask; 27° C.; 130 rpm). Sf21 cells were infected with this amplified virus with a multiplicity of infection of 5 following standard protocols (Crossen R, Gruenwald S (1997) Baculovirus Expression Vector System Instruction Manual, Pharmingen Corporation) and harvested 48 hrs later. The cells were lysed to obtain the produced chimeric protein of IKK-β kinase fused by histidine (His-tagged IKK-beta). (2) The Preparation of Purified GST-IκBα Fusion Proteins • An expression vector containing the nucleotide sequence encoding fusion protein of GST with amino acid residues 1 to 54 of IκBα under the control of an IPTG-inducible promoter was constructed. The expression vector was introduced in E. coli and the transformant was cultured and lysed to obtain a GST-IκBα fusion protein. Then the resulting GST-IκBα fusion protein was purified and biotinated for kinase assay. (3) The Measurement of IKK-β Kinase Activity • The 96-well format kinase assay of IKK-β were performed to test the inhibitory activity of the compounds of the present invention. First, 5 μl of a test compound was put in the presence of 2.5% dimethyl sulfoxide (DMSO) in each well in a U-bottomed 96-well plate (Falcon). For control wells of background (BG) and total phosphorylation (TP), 5 μl of 2.5% DMSO was put. Recombinant IKK-β (final 0.6 μg/ml) and bio-GST-IκBα (1-54) (final 0.2 μM) were diluted in 25 μl of 2×kinase buffer β (40 mM Tris-HCl, pH 7.6, 40 mM MgCl2, 40 mM β-glycerophosphate, 40 mM p-nitrophenylphosphate, 2 mM EDTA, 40 mM creatine phosphate, 2 mM DTT, 2 mM Na3VO4, 0.2 mg/ml BSA and 0.8 mM phenylmethylsulfonyl fluoride) and transferred to the 96-well plate. Bio-GST-IκBα (1-54) in 25 μl of 2×kinase buffer β without IKK-β was transferred to BG wells. Then 20 μl of 12.5 μM ATP, 62.5 μCi/ml [γ-^33P] ATP (Amersham Pharmacia Biotech) was added and the resulting mixture was incubated for 2 hrs at room temperature. The kinase reactions were terminated by the addition of 150 μl of termination buffer (100 mM EDTA, 1 mg/ml BSA, 0.2 mg NaN3). One hundred and fifty μl of the sample were transferred to a streptavidin-coated, white MTP (Steffens Biotechniche Analysen GmbH #08114E14.FWD) to capture the biotinylated substrates. After 1 hr of incubation, non-bound radioactivity was eliminated by washing the wells five times with 300 μl of washing buffer including 0.9% NaCl and 0.1% (w/v) Tween-20 with the use of a MW-96 plate washer (BioTec). The bound radioactivity was determined after the addition of 170 μl MicroScint-PS scintillation cocktail (Packard) using a TopCount scintillation counter. [Syk Tyrosine Kinase Inhibitory Assay for Selectivity] (1) Preparation of Syk Protein • A cDNA fragment encoding human Syk openreading frame was cloned from total RNA of human Burkitt's lymphoma B cell lines, Raji (American Type Culture Collection), with the use of RT-PCR method.
row,IC50,SMILES
1,< 500 nM,"Nc1nc(-c2ccccc2O)cc2c1CNC2Cc1ccccc1 (stereo in doubt) [Example 20-3, 2-[(1S)-4-amino-1-benzyl-2,3-dihydro-1H-pyrrolo[3,4-c]pyridin-6-yl]phenol hydrochloride]"
2,500 to 2000 nM,"CC1(c2cc(-c3ccccc3O)nc(N)c2C#N)CCCNC1 (centres unmarked) [Example 1-3, 2-amino-6-(2-hydroxyphenyl)-4-(3-methylpiperidin-3-yl)-nicotinonitrile hydrochloride]"
3,< 500 nM,"CNC1CCCC(c2cc(-c3ccccc3O)nc(N)c2C#N)C1 (centres unmarked) [Example 1-5, 2-amino-6-(2-hydroxyphenyl)-4-[3-methylamino]cyclohexyl]nicotinonitrile hydrochloride]"
4,< 500 nM,"N#Cc1c(C2CCCNC2)cc(-c2ncccc2O)nc1N (centres unmarked) [Example 1-6, 6-amino-3′-hydroxy-4-(3-piperidinyl)-2,2′-bipyridine-5-carbonitrile hydrochloride]"
5,< 500 nM,"N#Cc1c(C2CCCNC2)cc(-c2sccc2O)nc1N (centres unmarked) [Example 1-7, 2-amino-6-(3-hydroxy-2-thienyl)-4-(3-piperidinyl)nicotinonitrile hydrobromide]"
6,500 to 2000 nM,"N#Cc1c(C2CCCC(C(=O)O)C2)cc(-c2ccccc2O)nc1N (centres unmarked) [Example 1-8, 3-[2-amino-3-cyano-6-(2-hydroxyphenyl)-4-pyridinyl]cyclohexanecarboxylic acid]"
7,< 500 nM,"N#Cc1c(C2=CCCNC2)cc(-c2ccccc2O)nc1N [Example 1-9, 2′-amino-6′-(2-hydroxyphenyl)-1,2,5,6-tetrahydro-3,4′-bipyridine-3′-carbonitrile hydrochloride]"
8,2000 to 10000 nM,"N#Cc1c(C2CCCNC2)cc(-c2c(N)cccc2O)nc1N (centres unmarked) [Example 1-10, 2-amino-6-(2-amino-6-hydroxyphenyl)-4-(3-piperidinyl)nicotinonitrile hydrochloride]"
9,500 to 2000 nM,"N#Cc1c(C2CCCNC2)cc(-c2c(O)cccc2NCc2ccccc2)nc1N (centres unmarked) [Example 1-11, 2-amino-6-[2-(benzylamino)-6-hydroxyphenyl]-4-(3-piperidinyl)nicotinonitrile hydrochloride]"
10,2000 to 10000 nM,"CC(=O)Nc1cccc(O)c1-c1cc(C2CCCNC2)c(C#N)c(N)n1 (centres unmarked) [Example 1-12, N-{2-[6-amino-5-cyano-4-(3-piperidinyl)-2-pyridinyl]-3-hydroxyphenyl}acetamide hydrochloride]"
11,< 500 nM,"N#Cc1c(C2CCCNC2)cc(-c2c(O)cccc2O)nc1N (centres unmarked) [Example 2-1, 2-amino-6-(2,6-dihydroxyphenyl)-4-(3-piperidinyl)nicotinonitrile hydrochloride]"
12,< 500 nM,"N#Cc1c(C2CCCNC2)cc(-c2c(O)cccc2OCc2ccccc2)nc1N (centres unmarked) [Example 2-2, 2-amino-6-[2-(benzyloxy)-6-hydroxyphenyl]-4-(3-piperidinyl)nicotinonitrile hydrochloride]"
13,< 500 nM,"N#Cc1c(C2CCNCC2)cc(-c2c(O)cccc2OCC2CC2)nc1N [Example 2-3, hydrochloride]"
14,< 500 nM,"CN1CCCC(c2cc(-c3c(O)cccc3OCC3CC3)nc(N)c2C#N)C1 (centres unmarked) [Example 3-1, 2-amino-6-[2-(cyclopropylmethoxy)-6-hydroxyphenyl]-4-(1-methyl-3-piperidinyl)nicotinonitrile]"
15,2000 to 10000 nM,"N#Cc1c(C2CCCN(Cc3ccccc3)C2)cc(-c2c(O)cccc2OCC2CC2)nc1N (centres unmarked) [Example 3-2, 2-amino-4-(1-benzyl-3-piperidinyl)-6-[2-(cyclopropylmethoxy)-6-hydroxyphenyl]nicotinonitrile]"
16,2000 to 10000 nM,"CCCNc1nc(-c2ccccc2O)cc(C2CCCNC2)c1C#N (centres unmarked) [Example 4-2, 6-(2-hydroxyphenyl)-4-(3-piperidinyl)-2-(propylamino)nicotinonitrile hydrochloride]"
17,2000 to 10000 nM,"CNc1nc(-c2ccccc2O)cc(C2CCCNC2)c1C#N (centres unmarked) [Example 4-3, 6-(2-hydroxyphenyl)-2-(methylamino)-4-(3-piperidinyl)nicotinonitrile hydrochloride]"
18,> 10000 nM,"N#Cc1c(C2CCCNC2)cc(-c2ccccc2O)nc1Nc1ccccc1 (centres unmarked) [Example 4-4, hydrochloride]"
19,2000 to 10000 nM,"Nc1n[nH]c2nc(-c3ccccc3O)cc(C3CCCNC3)c12 (centres unmarked) [Example 5-1, 2-[3-amino-4-(3-piperidinyl)-1H-pyrazolo[3,4-b]pyridin-6-yl]phenol hydrochloride]"
20,> 10000 nM,"CC(=O)Nc1n[nH]c2nc(-c3ccccc3O)cc(C3CCCNC3)c12 (centres unmarked) [Example 5-2, N-[6-(2-hydroxyphenyl)-4-(3-piperidinyl)-1H-pyrazolo[3,4-b]pyridin-3-yl]acetamide hydrochloride]"
21,< 500 nM,"CC(=O)Nc1nc(-c2ccccc2O)cc(C2CCCNC2)c1C#N (centres unmarked) [Example 6-1, N-[3-cyano-6-(2-hydroxyphenyl)-4-(3-piperidinyl)-2-pyridinyl]acetamide hydrochloride]"
22,< 500 nM,"CC(=O)Nc1nc(-c2c(O)cccc2OCC2CC2)cc(C2CCNCC2)c1C#N [Example 6-2, N-[3-cyano-6-[2-(cyclopropylmethoxy)-6-hydroxyphenyl]-4-(4-piperidinyl)-2-pyridinyl]acetamide hydrochloride]"
23,< 500 nM,"NC(=O)c1c(C2CCCNC2)cc(-c2ccccc2O)nc1N (centres unmarked) [Example 7-1, 2-amino-6-(2-hydroxyphenyl)-4-(3-piperidinyl)nicotinamide hydrochloride]"
24,< 500 nM,"O=c1[nH]c(=O)c2c(C3CCCNC3)cc(-c3ccccc3O)nc2[nH]1 (centres unmarked) [Example 7-2, 7-(2-hydroxyphenyl)-5-(3-piperidinyl)pyrido[2,3-d]pyrimidine-2,4(1H,3H)-dione hydrochloride]"
25,500 to 2000 nM,"O=c1[nH]c2nc(-c3ccccc3O)cc(C3CCCNC3)c2c(=O)n1-c1ccccc1 (centres unmarked) [Example 7-3, 7-(2-hydroxyphenyl)-3-phenyl-5-(3-piperidinyl)pyrido[2,3-d]pyrimidine-2,4(1H,3H)-dione hydrochloride]"
26,500 to 2000 nM,"Nc1nc(-c2ccccc2O)cc2c1C(=O)N1CCCC2C1 (centres unmarked) [Example 8-1, 6-amino-4-(2-hydroxy-phenyl)-5,9-diaza-tricyclo[7.3.1.0^2,7]trideca-2(7),3,5-trien-8-one]"
